# The kinase profiling compilation of Christmann-Franck et al. (2016)
# Where “and” joins values, the source holds several entries; their conditions need not be identical. Equal values may be shown once.
# What was measured:
# Experiment in all cases: radiometric filter-binding kinase assay, Kinase HotSpot
# Settings in all cases: compound 0.5 µM; ATP 10 µM
# ZAP70 (human) = ZAP70 (human) (UniProt P43403)
# PASK (human) = PASK (human) (UniProt Q96RG2)
# PIM1 (human) = PIM1 (human) (UniProt P11309)
# EPHA7 (human) = EPHA7 (human) (UniProt Q15375)
# PRKCI (human) = PRKCI (human) (UniProt P41743)
# IRAK1 (human) = IRAK1 (human) (UniProt P51617)
# TSSK1B (human) = TSSK1B (human) (UniProt Q9BXA7)
# CDK6 CCND1 (human) = CDK6 CCND1 (human) (UniProt Q00534+P24385)
# NEK11 (human) = NEK11 (human) (UniProt Q8NG66)
# MARK3 (human) = MARK3 (human) (UniProt P27448)
# EGFR (human) = EGFR (human) (UniProt P00533)
# MAP3K2 (human) = MAP3K2 (human) (UniProt Q9Y2U5)
# PRKCD (human) = PRKCD (human) (UniProt Q05655)
# CSNK1D (human) = CSNK1D (human) (UniProt P48730)
# EPHA1 (human) = EPHA1 (human) (UniProt P21709)
# GRK6 (human) = GRK6 (human) (UniProt P43250)
# PRKG1 (human) = PRKG1 (human) (UniProt Q13976)
# PRKCH (human) = PRKCH (human) (UniProt P24723)
# AXL (human) = AXL (human) (UniProt P30530)
# TSSK2 (human) = TSSK2 (human) (UniProt Q96PF2)
# CDK2 CCNE1 (human) = CDK2 CCNE1 (human) (UniProt P24941+P24864)
# BMX (human) = BMX (human) (UniProt P51813)
# RAF1 (human) = RAF1 (human) (UniProt P04049)
# STK17A (human) = STK17A (human) (UniProt Q9UEE5)
# CAMKK2 (human) = CAMKK2 (human) (UniProt Q96RR4)
# DCLK2 (human) = DCLK2 (human) (UniProt Q8N568)
# DMPK (human) = DMPK (human) (UniProt Q09013)
# GSG2 (human) = GSG2 (human) (UniProt Q8TF76)
# LYN (human) = LYN (human) (UniProt P07948)
# OXSR1 (human) = OXSR1 (human) (UniProt O95747)
# MAP2K2 (human) = MAP2K2 (human) (UniProt P36507)
# TAOK2 (human) = TAOK2 (human) (UniProt Q9UL54)
# NEK4 (human) = NEK4 (human) (UniProt P51957)
# STK33 (human) = STK33 (human) (UniProt Q9BYT3)
# BRSK1 (human) = BRSK1 (human) (UniProt Q8TDC3)
# ADRBK1 (human) = ADRBK1 (human) (UniProt P25098)
# STK16 (human) = STK16 (human) (UniProt O75716)
# SYK (human) = SYK (human) (UniProt P43405)
# FYN (human) = FYN (human) (UniProt P06241)
# MARK2 (human) = MARK2 (human) (UniProt Q7KZI7)
# MAP4K4 (human) = MAP4K4 (human) (UniProt O95819)
# MAP3K7 TAB1 (human) = MAP3K7 TAB1 (human) (UniProt O43318+Q15750)
# Sequence of TSSK1B (human) (Q9BXA7 whole entry, looked up): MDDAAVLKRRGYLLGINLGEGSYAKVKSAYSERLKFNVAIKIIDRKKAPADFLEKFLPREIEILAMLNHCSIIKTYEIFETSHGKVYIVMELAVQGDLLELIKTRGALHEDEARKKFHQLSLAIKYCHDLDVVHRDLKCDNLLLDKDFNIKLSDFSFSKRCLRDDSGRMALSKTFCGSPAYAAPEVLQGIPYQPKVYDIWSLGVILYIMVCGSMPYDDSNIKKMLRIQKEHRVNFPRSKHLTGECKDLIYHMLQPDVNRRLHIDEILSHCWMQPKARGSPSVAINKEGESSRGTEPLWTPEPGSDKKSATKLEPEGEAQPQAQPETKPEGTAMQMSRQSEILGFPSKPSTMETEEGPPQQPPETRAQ
# Sequence of BRSK1 (human) (Q8TDC3 whole entry, looked up): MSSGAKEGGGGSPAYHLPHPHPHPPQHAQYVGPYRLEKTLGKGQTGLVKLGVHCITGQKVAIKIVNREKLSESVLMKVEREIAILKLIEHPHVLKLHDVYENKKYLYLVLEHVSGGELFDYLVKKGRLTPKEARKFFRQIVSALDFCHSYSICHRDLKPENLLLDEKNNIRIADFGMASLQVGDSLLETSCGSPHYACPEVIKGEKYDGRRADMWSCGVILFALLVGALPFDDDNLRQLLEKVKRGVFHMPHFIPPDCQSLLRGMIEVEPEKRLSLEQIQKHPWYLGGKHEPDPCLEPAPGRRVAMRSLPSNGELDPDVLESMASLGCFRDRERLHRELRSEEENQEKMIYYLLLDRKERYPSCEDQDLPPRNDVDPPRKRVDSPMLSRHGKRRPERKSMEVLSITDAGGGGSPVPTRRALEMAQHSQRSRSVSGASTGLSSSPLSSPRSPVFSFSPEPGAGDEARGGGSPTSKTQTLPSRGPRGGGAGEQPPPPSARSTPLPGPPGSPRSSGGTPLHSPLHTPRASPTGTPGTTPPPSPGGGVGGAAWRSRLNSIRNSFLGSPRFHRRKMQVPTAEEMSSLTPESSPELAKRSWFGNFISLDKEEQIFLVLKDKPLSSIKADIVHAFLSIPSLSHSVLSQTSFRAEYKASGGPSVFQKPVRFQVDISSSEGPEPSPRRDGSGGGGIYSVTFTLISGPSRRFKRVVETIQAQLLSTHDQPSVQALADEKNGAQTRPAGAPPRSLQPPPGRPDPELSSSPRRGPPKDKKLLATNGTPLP
# Sequence of EPHA1 (human) (P21709 whole entry, looked up): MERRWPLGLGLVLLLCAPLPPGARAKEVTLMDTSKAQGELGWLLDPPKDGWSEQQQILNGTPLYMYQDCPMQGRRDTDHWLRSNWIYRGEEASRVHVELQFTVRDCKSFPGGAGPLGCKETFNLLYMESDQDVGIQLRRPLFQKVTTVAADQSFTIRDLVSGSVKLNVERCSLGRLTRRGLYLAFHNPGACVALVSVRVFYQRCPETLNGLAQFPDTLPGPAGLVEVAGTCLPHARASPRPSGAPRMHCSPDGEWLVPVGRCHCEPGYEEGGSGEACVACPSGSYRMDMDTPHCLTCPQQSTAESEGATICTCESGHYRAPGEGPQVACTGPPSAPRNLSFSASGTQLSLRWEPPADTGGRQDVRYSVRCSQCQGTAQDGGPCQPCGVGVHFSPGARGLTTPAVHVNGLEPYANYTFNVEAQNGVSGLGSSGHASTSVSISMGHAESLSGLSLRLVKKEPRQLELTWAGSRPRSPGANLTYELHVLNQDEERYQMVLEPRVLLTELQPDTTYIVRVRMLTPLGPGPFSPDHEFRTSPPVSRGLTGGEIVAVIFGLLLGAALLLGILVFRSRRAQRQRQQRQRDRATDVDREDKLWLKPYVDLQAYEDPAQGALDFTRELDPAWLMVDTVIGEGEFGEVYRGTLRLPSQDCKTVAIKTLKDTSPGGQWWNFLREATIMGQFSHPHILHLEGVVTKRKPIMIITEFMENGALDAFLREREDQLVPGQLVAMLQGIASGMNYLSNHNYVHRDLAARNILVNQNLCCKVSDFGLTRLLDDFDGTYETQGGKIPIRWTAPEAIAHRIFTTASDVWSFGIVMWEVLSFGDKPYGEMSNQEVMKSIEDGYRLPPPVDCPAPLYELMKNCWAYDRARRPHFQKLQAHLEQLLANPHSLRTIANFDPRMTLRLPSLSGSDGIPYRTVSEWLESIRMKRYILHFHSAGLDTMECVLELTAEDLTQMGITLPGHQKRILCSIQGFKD
# Sequence of CAMKK2 (human) (Q96RR4 whole entry, looked up): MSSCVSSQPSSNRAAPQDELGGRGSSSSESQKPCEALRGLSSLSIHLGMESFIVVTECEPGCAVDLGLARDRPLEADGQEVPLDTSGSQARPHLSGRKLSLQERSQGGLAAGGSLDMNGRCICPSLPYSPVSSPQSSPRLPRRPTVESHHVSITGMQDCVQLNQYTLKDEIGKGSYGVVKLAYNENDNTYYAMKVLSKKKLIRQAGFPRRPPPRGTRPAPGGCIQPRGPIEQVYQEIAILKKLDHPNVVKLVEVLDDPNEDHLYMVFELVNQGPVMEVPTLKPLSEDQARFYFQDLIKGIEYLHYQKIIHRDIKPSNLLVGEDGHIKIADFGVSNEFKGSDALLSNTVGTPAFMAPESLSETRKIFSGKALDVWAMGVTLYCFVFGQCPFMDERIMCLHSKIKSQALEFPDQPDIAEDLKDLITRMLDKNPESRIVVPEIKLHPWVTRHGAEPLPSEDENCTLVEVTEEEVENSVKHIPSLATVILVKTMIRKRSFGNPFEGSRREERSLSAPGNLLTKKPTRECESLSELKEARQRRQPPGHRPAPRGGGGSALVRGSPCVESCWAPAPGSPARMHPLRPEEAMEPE
# Sequence of FYN (human) (P06241 whole entry, looked up): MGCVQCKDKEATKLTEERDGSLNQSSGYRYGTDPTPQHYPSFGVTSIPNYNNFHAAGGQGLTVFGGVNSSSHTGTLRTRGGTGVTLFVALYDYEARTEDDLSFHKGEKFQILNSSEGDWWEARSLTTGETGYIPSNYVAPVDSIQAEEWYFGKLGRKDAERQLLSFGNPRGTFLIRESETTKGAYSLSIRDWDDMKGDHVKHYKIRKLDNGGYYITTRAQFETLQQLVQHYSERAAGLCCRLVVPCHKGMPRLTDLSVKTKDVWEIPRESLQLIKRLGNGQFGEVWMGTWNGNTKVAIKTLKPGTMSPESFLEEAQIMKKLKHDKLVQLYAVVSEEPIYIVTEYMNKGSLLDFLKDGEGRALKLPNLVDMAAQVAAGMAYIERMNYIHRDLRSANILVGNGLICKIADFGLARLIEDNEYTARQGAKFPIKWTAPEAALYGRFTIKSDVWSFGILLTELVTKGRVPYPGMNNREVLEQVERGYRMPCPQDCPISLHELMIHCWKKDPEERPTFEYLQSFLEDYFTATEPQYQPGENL
# Sequence of EPHA7 (human) (Q15375 whole entry, looked up): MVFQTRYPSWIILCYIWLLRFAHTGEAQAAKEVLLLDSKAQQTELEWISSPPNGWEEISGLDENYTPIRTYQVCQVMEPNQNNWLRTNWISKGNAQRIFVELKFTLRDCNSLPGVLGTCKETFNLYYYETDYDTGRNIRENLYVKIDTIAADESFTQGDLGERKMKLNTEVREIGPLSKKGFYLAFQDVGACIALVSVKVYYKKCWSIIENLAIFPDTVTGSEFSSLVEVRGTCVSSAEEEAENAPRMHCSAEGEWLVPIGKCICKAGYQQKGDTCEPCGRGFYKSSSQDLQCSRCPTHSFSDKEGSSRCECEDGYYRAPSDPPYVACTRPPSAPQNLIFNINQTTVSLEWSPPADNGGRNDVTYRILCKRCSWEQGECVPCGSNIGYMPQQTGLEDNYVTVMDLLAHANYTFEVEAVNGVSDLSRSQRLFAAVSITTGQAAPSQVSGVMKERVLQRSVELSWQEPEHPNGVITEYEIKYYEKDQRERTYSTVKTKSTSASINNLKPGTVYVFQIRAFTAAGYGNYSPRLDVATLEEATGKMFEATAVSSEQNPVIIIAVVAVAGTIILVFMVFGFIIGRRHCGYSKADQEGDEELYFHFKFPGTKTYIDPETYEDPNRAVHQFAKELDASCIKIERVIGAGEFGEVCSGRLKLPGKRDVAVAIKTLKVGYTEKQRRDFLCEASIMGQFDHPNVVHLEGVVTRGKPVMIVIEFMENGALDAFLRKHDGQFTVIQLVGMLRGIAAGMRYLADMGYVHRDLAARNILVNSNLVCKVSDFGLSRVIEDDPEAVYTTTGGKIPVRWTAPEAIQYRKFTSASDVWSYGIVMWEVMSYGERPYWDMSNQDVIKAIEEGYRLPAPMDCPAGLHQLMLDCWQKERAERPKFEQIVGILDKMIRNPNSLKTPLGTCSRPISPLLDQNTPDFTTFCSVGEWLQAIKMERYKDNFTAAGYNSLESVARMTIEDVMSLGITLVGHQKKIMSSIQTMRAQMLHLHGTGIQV
# Sequence of IRAK1 (human) (P51617 whole entry, looked up): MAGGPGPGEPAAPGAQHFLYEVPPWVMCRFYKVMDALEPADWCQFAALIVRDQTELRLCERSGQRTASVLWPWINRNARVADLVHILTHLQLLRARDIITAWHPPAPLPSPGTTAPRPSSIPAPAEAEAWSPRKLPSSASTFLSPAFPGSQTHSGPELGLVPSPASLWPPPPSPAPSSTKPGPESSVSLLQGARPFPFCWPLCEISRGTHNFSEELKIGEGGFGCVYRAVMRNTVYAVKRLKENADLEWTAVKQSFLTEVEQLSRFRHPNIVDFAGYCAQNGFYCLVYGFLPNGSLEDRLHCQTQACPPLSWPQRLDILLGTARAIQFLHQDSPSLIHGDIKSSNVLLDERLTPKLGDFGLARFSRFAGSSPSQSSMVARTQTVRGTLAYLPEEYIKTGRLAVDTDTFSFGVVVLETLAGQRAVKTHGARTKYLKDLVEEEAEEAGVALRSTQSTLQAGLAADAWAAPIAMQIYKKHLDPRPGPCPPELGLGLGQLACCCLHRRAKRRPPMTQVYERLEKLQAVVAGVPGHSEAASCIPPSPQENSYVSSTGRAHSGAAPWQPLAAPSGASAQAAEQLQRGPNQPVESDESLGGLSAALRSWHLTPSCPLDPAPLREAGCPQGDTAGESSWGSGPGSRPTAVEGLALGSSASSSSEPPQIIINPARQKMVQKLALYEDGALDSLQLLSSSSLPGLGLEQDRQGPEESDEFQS
compound,measurement,setting,value
COc1cc2ncnc(N3CCN(C(=O)Nc4ccc(Oc5ccccc5)cc4)CC3)c2cc1OC,residual activity,ZAP70 (human),100%
same,residual activity,PASK (human),97.7%
same,residual activity,PIM1 (human),102%
same,residual activity,EPHA7 (human),96.8%
same,residual activity,PRKCI (human),105%
same,residual activity,IRAK1 (human),116%
same,residual activity,TSSK1B (human),65.2%
same,residual activity,CDK6 CCND1 (human),95.1%
same,residual activity,NEK11 (human),107%
same,residual activity,MARK3 (human),80.4%
same,residual activity,EGFR (human),79.1%
same,residual activity,MAP3K2 (human),81.2%
same,residual activity,PRKCD (human),84.3%
same,residual activity,CSNK1D (human),103%
same,residual activity,EPHA1 (human),102%
same,residual activity,GRK6 (human),96.4%
same,residual activity,PRKG1 (human),85.6% and 98.7%
same,residual activity,PRKCH (human),86.1%
same,residual activity,AXL (human),91.7%
same,residual activity,TSSK2 (human),79.1%
same,residual activity,CDK2 CCNE1 (human),92.1%
same,residual activity,BMX (human),90.9%
same,residual activity,RAF1 (human),88%
same,residual activity,STK17A (human),85.5%
same,residual activity,CAMKK2 (human),81.6%
same,residual activity,DCLK2 (human),90.6%
same,residual activity,DMPK (human),95.6%
same,residual activity,GSG2 (human),93.2%
same,residual activity,LYN (human),102% and 97.8%
same,residual activity,OXSR1 (human),119%
same,residual activity,MAP2K2 (human),99.3%
same,residual activity,TAOK2 (human),96.3%
same,residual activity,NEK4 (human),94.4%
same,residual activity,STK33 (human),94.7%
same,residual activity,BRSK1 (human),86.4%
same,residual activity,ADRBK1 (human),96.7%
same,residual activity,STK16 (human),94.2%
same,residual activity,SYK (human),93.2%
same,residual activity,FYN (human),112%
same,residual activity,MARK2 (human),97.4%
same,residual activity,MAP4K4 (human),88.4%
same,residual activity,MAP3K7 TAB1 (human),98.3%
COc1ccc(OC)c2c(=S)c3ccccc3[nH]c12,residual activity,ZAP70 (human),100%
same,residual activity,PASK (human),90.1%
same,residual activity,PIM1 (human),93%
same,residual activity,EPHA7 (human),89.7%
same,residual activity,PRKCI (human),99.3%
same,residual activity,IRAK1 (human),91.1%
same,residual activity,TSSK1B (human),114%
same,residual activity,CDK6 CCND1 (human),102%
same,residual activity,NEK11 (human),130%
same,residual activity,MARK3 (human),96.7%
same,residual activity,EGFR (human),91%
same,residual activity,MAP3K2 (human),101%
same,residual activity,PRKCD (human),103%
same,residual activity,CSNK1D (human),101%
same,residual activity,EPHA1 (human),89%
same,residual activity,GRK6 (human),97.2%
same,residual activity,PRKG1 (human),101% and 94.4%
same,residual activity,PRKCH (human),86.2%
same,residual activity,AXL (human),103%
same,residual activity,TSSK2 (human),108%
same,residual activity,CDK2 CCNE1 (human),77.9%
same,residual activity,BMX (human),105%
same,residual activity,RAF1 (human),88.2%
same,residual activity,STK17A (human),90.3%
same,residual activity,CAMKK2 (human),108%
same,residual activity,DCLK2 (human),94.6%
same,residual activity,DMPK (human),99.6%
same,residual activity,GSG2 (human),89.2%
same,residual activity,LYN (human),106% and 96.9%
same,residual activity,OXSR1 (human),90.6%
same,residual activity,MAP2K2 (human),100%
same,residual activity,TAOK2 (human),100%
same,residual activity,NEK4 (human),87.7%
same,residual activity,STK33 (human),98.4%
same,residual activity,BRSK1 (human),93.7%
same,residual activity,ADRBK1 (human),92.5%
same,residual activity,STK16 (human),90%
same,residual activity,SYK (human),100%
same,residual activity,FYN (human),101%
same,residual activity,MARK2 (human),93.9%
same,residual activity,MAP4K4 (human),101%
same,residual activity,MAP3K7 TAB1 (human),98.8%
O=C(O)/C=C/c1cc(Br)c(Br)c(Br)c1Br,residual activity,ZAP70 (human),98.5%
same,residual activity,PASK (human),24.8%
same,residual activity,PIM1 (human),16.2%
same,residual activity,EPHA7 (human),94.1%
same,residual activity,PRKCI (human),97.3%
same,residual activity,IRAK1 (human),94.4%
same,residual activity,TSSK1B (human),79.2%
same,residual activity,CDK6 CCND1 (human),102%
same,residual activity,NEK11 (human),101%
same,residual activity,MARK3 (human),104%
same,residual activity,EGFR (human),98.4%
same,residual activity,MAP3K2 (human),102%
same,residual activity,PRKCD (human),93.9%
same,residual activity,CSNK1D (human),59.1%
same,residual activity,EPHA1 (human),94.6%
same,residual activity,GRK6 (human),97.2%
same,residual activity,PRKG1 (human),78.9% and 89%
same,residual activity,PRKCH (human),83.7%
same,residual activity,AXL (human),90.9%
same,residual activity,TSSK2 (human),98.1%
same,residual activity,CDK2 CCNE1 (human),89.4%
same,residual activity,BMX (human),97%
same,residual activity,RAF1 (human),91.3%
same,residual activity,STK17A (human),84.6%
same,residual activity,CAMKK2 (human),79.6%
same,residual activity,DCLK2 (human),94.8%
same,residual activity,DMPK (human),103%
same,residual activity,GSG2 (human),88.4%
same,residual activity,LYN (human),102% and 99.3%
same,residual activity,OXSR1 (human),93.5%
same,residual activity,MAP2K2 (human),103%
same,residual activity,TAOK2 (human),88.9%
same,residual activity,NEK4 (human),54.6%
same,residual activity,STK33 (human),67.9%
same,residual activity,BRSK1 (human),80.5%
same,residual activity,ADRBK1 (human),97.9%
same,residual activity,STK16 (human),90.4%
same,residual activity,SYK (human),102%
same,residual activity,FYN (human),97.9%
same,residual activity,MARK2 (human),82.1%
same,residual activity,MAP4K4 (human),63.5%
same,residual activity,MAP3K7 TAB1 (human),98.4%
Oc1ccc(Nc2nc(-c3ccc(Cl)cc3)cs2)cc1,residual activity,ZAP70 (human),94.7%
same,residual activity,PASK (human),131%
same,residual activity,PIM1 (human),103%
same,residual activity,EPHA7 (human),97.7%
same,residual activity,PRKCI (human),99.5%
same,residual activity,IRAK1 (human),123%
same,residual activity,TSSK1B (human),119%
same,residual activity,CDK6 CCND1 (human),101%
same,residual activity,NEK11 (human),77.1%
same,residual activity,MARK3 (human),95.3%
same,residual activity,EGFR (human),95.3%
same,residual activity,MAP3K2 (human),92.1%
same,residual activity,PRKCD (human),86.9%
same,residual activity,CSNK1D (human),105%
same,residual activity,EPHA1 (human),92.6%
same,residual activity,GRK6 (human),100%
same,residual activity,PRKG1 (human),94.1% and 98.5%
same,residual activity,PRKCH (human),96.3%
same,residual activity,AXL (human),98.5%
same,residual activity,TSSK2 (human),102%
same,residual activity,CDK2 CCNE1 (human),91.9%
same,residual activity,BMX (human),103%
same,residual activity,RAF1 (human),95.7%
same,residual activity,STK17A (human),98.7%
same,residual activity,CAMKK2 (human),101%
same,residual activity,DCLK2 (human),98.5%
same,residual activity,DMPK (human),102%
same,residual activity,GSG2 (human),100%
same,residual activity,LYN (human),100%
same,residual activity,OXSR1 (human),88.8%
same,residual activity,MAP2K2 (human),109%
same,residual activity,TAOK2 (human),101%
same,residual activity,NEK4 (human),104%
same,residual activity,STK33 (human),97.5%
same,residual activity,BRSK1 (human),102%
same,residual activity,ADRBK1 (human),100%
same,residual activity,STK16 (human),106%
same,residual activity,SYK (human),93.8%
same,residual activity,FYN (human),102%
same,residual activity,MARK2 (human),102%
same,residual activity,MAP4K4 (human),88.9%
same,residual activity,MAP3K7 TAB1 (human),95.3%
